In patent publication US20250017206A1, “METHODS FOR PREVENTING OR REDUCING BACTERIAL INFECTION OF PLANT SEEDS” (priority 2022, published 2025):
“Also recorded” adds a separate entry of the source.

Experiments:
Acidovorax citrulli = experiment: A. citrulli growth on LB agar growth medium containing tea, extracts or compounds; assay type: cell-based; details: for inhibition of A. citrulli (summary): compound alone in culture
Experimental: A. citrulli growth on LB agar medium was assessed after treatment with commercial brands of black and green teas and their constituent compounds to determine inhibitory effects. Dried loose tea leaves were boiled in distilled water, strained, and liquid added to LB agar growth medium to assess concentration effects. Five grams of loose-leaf tea was autoclaved in 200 mL distilled water for 25 minutes in the liquid cycle. After autoclaving, the tea was cooled to room temperature and filtered using Whatman #1 filter paper. The filtered tea was adjusted by spectrophotometry (DU 800, Beckman Coulter) to 4.0, 3.0, 2.0, 1.0, and 0.5 at OD390.
Luria Broth (LB) agar growth medium was prepared by mixing 10 grams of tryptone, 5 grams of yeast extract, and 10 grams of sodium chloride, and 15 grams of Bacto™ Agar Solidifying Agent (BD Diagnostics) in 1 liter of distilled water (pH: 7.5) before autoclaving. Collected bacteria were resuspended in autoclave-sterilized 10 mM MgCl2, and adjusted to 1.0, 0.5, 0.1, 0.01, and 0.001 OD600 spectrophotometry.
1 mL of each standard compound was added to 10 mL of LB agar growth medium.
Growth curve on growth medium containing inhibitory extracts and compounds to test whether Acidovorax citrulli could grow in the presence of green and black teas and some of their constituents, growth analysis was conducted in Petri dishes on solid LB agar containing tea or its extracts to quantitate bacterial growth inhibition. We also wanted to see whether tea and its constituents affected antibiotic resistance by comparing growth on both LB agar and Rifampicin containing LB agar. […] For the second stage, effects were verified by blotting 20 μL of inoculum with 9 1:10 serial dilutions to be able to count bacterial colonies. After growth medium solidified, 5 μL of bacterial inoculum adjusted at OD600: to 1.0, 0.5, 0.1, 0.01, or 0.001 (at first stage) and 20 μL of bacterial inoculum adjusted to OD600: 10^0, 10^−1, 10^−2, 10^−3, 10^−4, 10^−5, 10^−6, 10^−7, 10^−8, 10^−9 were blotted on the LB agar growth medium, containing tea samples or other extracts (1:10 mL). The Petri dishes inoculated with bacteria were incubated at 28° C. for 72 h in dark. Autoclaved distilled water was added to growth medium in a separate replicate with 5 μL of 10 mM MgCl2 and bacteria as a negative control. In order to check if additional distilled water affected bacterial growth, growth on LB medium with and without water was compared. Results were compared by colonies. When colonies could not be separated, bacterial growth was scored between 1 and 0 depending on the amount of growth on the surface of the blot.

[1] = test system: A. citrulli strain AAC00-1; details: components of cinnamon oil; Choi et al. (2016); cited from earlier work

Molecule: Oc1cc(O)c2c(c1)O[C@H](c1cc(O)c(O)c(O)c1)[C@H](O)C2 [EGC, epigallocatechin, reference compound]
- bacterial growth at 1 mM EGC (Acidovorax citrulli; 1 mM, bacteria OD600 0.1 and 0.01): efficient inhibitor; also recorded: inhibited bacterial growth on 0.1 dilution of bacteria
- bacterial growth at 0.5-1-1.5 mM EGC (Acidovorax citrulli; AAC00-1 OD600 1.0-0.001, 0.5-1-1.5 mM): did not show inhibitory effects; also recorded: showed no inhibition
- minimum concentration required for inhibition (Acidovorax citrulli; bacterial concentration OD600 0.001, AAC00-1): 0.5 mM

Molecule: O=C(O[C@@H]1Cc2c(O)cc(O)cc2O[C@@H]1c1ccc(O)c(O)c1)c1cc(O)c(O)c(O)c1 [ECG, epicatechin gallate, reference compound]
- bacterial growth at 0.5 mM (Acidovorax citrulli; 0.5 mM, AA000-1, maximum bacterial concentration OD600 0.01): inhibited bacterial growth
- bacterial growth at 1.5 mM (Acidovorax citrulli; AAC00-1, 1.5 mM, bacterial OD600 1.0): completely inhibitory; also recorded: inhibited all bacterial growth

Molecule: O=CC=Cc1ccccc1 [cinnamaldehyde]
- antibacterial activities against strain AAC00-1 [1]: exhibited antibacterial activities

Molecule: Cn1c(=O)c2c(ncn2C)n(C)c1=O [caffeine, reference compound]
- inhibition of A. citrulli (summary) (Acidovorax citrulli): not inhibitory

Molecule: catechin
- bacterial colony growth at 10 mM catechin (Acidovorax citrulli; AAC00-1, 0.1, 1, 10 mM compared, only 10 mM inhibitory, with or without rifampicin): inhibitory; also recorded: inhibited bacterial growth
- effect of antibiotic presence on bacterial colony growth inhibition by catechin (Acidovorax citrulli; AAC00-1, catechin 0.1, 1, 10 mM, with or without rifampicin 100 μg/mL): No difference
- bacterial growth at 5-10-15 mM (Acidovorax citrulli; AAC00-1 OD600 1.0-0.001, 5-10-15 mM): inhibited all bacterial growth
- inhibition of A. citrulli (summary) (Acidovorax citrulli): strongly inhibitory
- bacterial colony growth at 1 mM (Acidovorax citrulli; final concentration 1 mM in LB agar with rifampicin 100 μg/mL, M6, AAC00-1, aacI, aacR, OD600 1.0-0.001): inhibited A. citrulli; also recorded: inhibited some lower density colonies of bacteria
- bacterial colony growth at 10 mM (Acidovorax citrulli; final concentration 10 mM in LB agar with rifampicin 100 μg/mL, M6, AAC00-1, aacI, aacR, OD600 1.0-0.001): inhibited A. citrulli; also recorded: completely inhibited bacterial growth; also recorded: inhibited growth of all bacterial strains
- less A. citrulli growth in catechin treatments compared to caffeine treatment (Acidovorax citrulli; overall, 3-Way ANOVA, 95% significance level): ~25%
- inhibition of A. citrulli compared with black tea and caffeine (Acidovorax citrulli; preliminary, data not shown): greater than black tea and caffeine

Molecule: O=Cc1ccccc1 [benzaldehyde]
- antibacterial activities against strain AAC00-1 [1]: exhibited antibacterial activities
